According to patent US12596108B2, “Automated lipid exchange-mass spectrometry systems and methods” (ARIZONA BOARD OF REGENTS ON BEHALF OF THE UNIVERSITY OF …, priority 2020, dated 2026):

Biological target: T1, AmtB, an E. coli ammonia channel (Escherichia coli, UniProt P69681)
T1 construct: HIS (polyhistidine) (N, cleaved yes); MBP (N, cleaved yes); TEV site (N, cleaved yes); made in house; host or cells: E. coli
Test: Lipid exchange-mass spectrometry (LX-MS) between AmtB nanodiscs and tagged empty nanodiscs
Type: binding
Details: for optimal ratio for AmtB POPC/POPG (isolipid point) / lipid preference of AmtB (in words): LX-MS; for lipid preference of AmtB (in words) / isolipid point (mole fraction where Xp−Xt=0): POPC/POPG nanodiscs; for isolipid point (mole fraction where Xp−Xt=0): exchange at room temperature (21-23° C.) over 2.8 days, sigmoidal fit of Xt versus Xp−Xt
Experimental: AmtB, an E. coli ammonia channel, was incorporated into untagged nanodiscs with 50/50 1-palmitoyl-2-oleoyl-sn-glycero-3-phosphocholine (POPC)/1-palmitoyl-2-oleoyl-sn-glycero-3-phospho-(1′-racglycerol) (POPG). Polyhistidine-tagged empty nanodiscs without AmtB were also prepared at various POPC/POPG ratios ranging from 0 to 100% POPC. In one embodiment, the ratios were 0%, 20%, 40%, 50%, 60%, 80%, and 100% POPC Tagged empty nanodiscs were mixed with untagged AmtB nanodiscs, and the mixture was allowed to exchange at room temperature (21-23° C.) over 2.8 days. After exchange, internal standards containing PC and PG lipids with different tail lengths were added, and the total lipid mole fraction of POPC, Xt, was measured (tagged and untagged) by direct infusion MS. Then, the tagged empty nanodiscs were removed by passing the mixture over immobilized metal affinity chromatography (IMAC) beads, and the untagged AmtB nanodiscs were measured alone to determine the lipid mole fraction in the membrane protein nanodiscs, Xp. Preliminary experiments confirmed that the exchange was within experimental error (typically 2-4% absolute mole fraction) by 2.8 days, but a full examination of kinetics was not performed due to limited amounts of sample.
At high total POPC, AmtB shifted the equilibrium to acquire more POPG in the AmtB nanodiscs. Conversely, at low POPC levels, AmtB shifted the equilibrium to enrich the AmtB nanodiscs in POPC.
After establishing that AmtB remodels the local membrane environment, Xt versus Xp−Xt was fit to a sigmoidal curve and the x-intercept where Xp−Xt=0 was determined. At this mole fraction, which is termed the isolipid point, the lipid composition of the membrane protein nanodiscs is the same as the empty nanodiscs. The composition of the annular lipids matches the bulk lipid bilayer at the isolipid point.
The 50% POPC AmtB nanodiscs were mixed with empty nanodiscs assembled with the polyhistidine tagged MSP1E3D1 in POPC/(POPC+POPG) mole fractions of 0, 20, 40, 60, 80, or 100% at a 1:1 molar ratio and a final concentration of 2.3 μM AmtB nanodiscs. To extend the titration to a lower total POPC mole fraction (Xt), the AmtB nanodiscs were mixed with 0% POPC empty nanodiscs at a 1:2.6 molar ratio while keeping the AmtB nanodiscs at 2.3 μM. The mixtures were incubated at room temperature (21-23° C.) for 2.8 days to allow the lipid exchange to reach equilibrium. […] Control experiments were also performed using 50% POPC untagged empty nanodiscs mixed with empty nanodiscs assembled with the polyhistidine-tagged MSP1E3D1 in POPC/(POPC+POPG) mole fractions of 0, 20, 40, 60, 80, or 100% at a 1:1 molar ratio and a final concentration of 2.3 μM MSP as well as at a 1:2.6 molar ratio with 0% nanodiscs.
After exchanging, tagged empty nanodiscs and untagged (either empty or AmtB) nanodiscs were separated by IMAC using a Ni-NTA His SpinTrap (GE Healthcare). Because small exchange volumes of roughly 16 μL were used, around ⅓ of the 100 μL column volume was removed for a final column volume around 66 μL. The SpinTrap was prepared by three washes of 450 μL loading buffer (20 mM imidazole, 0.2 M ammonium acetate, pH 7.6) to equilibrate the column. Prior to addition to the beads, the imidazole concentration of the exchange mixture was adjusted to 20 mM by adding a 1 M imidazole solution (pH 7.6 adjusted with acetic acid) to limit the non-specific binding of the untagged nanodiscs. Then, the exchange reaction mixture was added to the IMAC beads and allowed to incubate for 1-2 minutes at 4° C. The flow-through was removed by centrifugation at 100 g for 45 seconds, and extra loading buffer of 20 μL was added to the column and washed under the same centrifugation procedures. […] Thus, the first wash was collected for MS analysis to maximize the lipid concentration. Around 20 μL was typically recovered. After separation, the His SpinTrap was cleaned with three washes of 450 μL elution buffer (400 mM imidazole, 0.2 M ammonium acetate, pH 7.8). […]

T1 sequence (P69681 23-428): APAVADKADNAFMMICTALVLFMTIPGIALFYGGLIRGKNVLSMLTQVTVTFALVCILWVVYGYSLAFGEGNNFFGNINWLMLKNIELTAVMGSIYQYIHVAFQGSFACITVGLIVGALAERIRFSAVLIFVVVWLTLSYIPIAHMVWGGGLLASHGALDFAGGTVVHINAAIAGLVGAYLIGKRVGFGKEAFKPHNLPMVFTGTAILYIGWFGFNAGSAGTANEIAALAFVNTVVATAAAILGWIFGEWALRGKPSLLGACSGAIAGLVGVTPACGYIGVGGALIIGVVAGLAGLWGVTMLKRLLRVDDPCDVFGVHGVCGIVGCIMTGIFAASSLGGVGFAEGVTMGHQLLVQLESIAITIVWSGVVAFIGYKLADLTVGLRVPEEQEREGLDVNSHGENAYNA

For CCCCCCCC/C=C\CCCCCCCC(=O)O[C@H](COC(=O)CCCCCCCCCCCCCCC)COP(=O)(O)OCC(O)CO (mixture of isomers) [POPG, 1-palmitoyl-2-oleoyl-sn-glycero-3-phospho-(1′-racglycerol)], the “optimal ratio for AmtB POPC/POPG (isolipid point)” value was 76, the “lipid preference of AmtB (in words)” value was “clear preference for POPG” and the “isolipid point (mole fraction where Xp−Xt=0)” value was 76±2%.

In the case of CCCCCCCC/C=C\CCCCCCCC(=O)O[C@H](COC(=O)CCCCCCCCCCCCCCC)COP(=O)([O-])OCC[N+](C)(C)C [POPC, 1-palmitoyl-2-oleoyl-sn-glycero-3-phosphocholine], the “optimal ratio for AmtB POPC/POPG (isolipid point)” value is reported as 24, the “lipid preference of AmtB (in words)” value is reported as “some affinity for POPC” and the “isolipid point (mole fraction where Xp−Xt=0)” value is reported as 24±2%.
